The values that follow come from ChEMBL document CHEMBL1138312, “Design and synthesis of indole-based peptoids as potent noncompetitive antagonists of transient receptor potential vanilloid 1” (J Med Chem, 2007).

In test [1] the target is Transient receptor potential cation channel subfamily V member 1 (Rattus norvegicus, UniProt O35433). The test is described as follows: Blockade of capsaicin-activated rat TRPV1 channel expressed in Xenopus oocytes. In kind it is cell-based, Oocyte.
Test [2] addresses Glutamate NMDA receptor; Grin1/Grin2a (Rattus norvegicus, UniProt P35439+Q00959). Kind of test: Blockade of L-glutamate/glycine-activated rat NR1/NR2A NMDA receptor expressed in Xenopus oocytes. In kind it is cell-based, Oocyte.

Each structure is given as a SMILES string.

Sequence of Glutamate NMDA receptor; Grin1/Grin2a (Q00959 whole entry, other chains not shown): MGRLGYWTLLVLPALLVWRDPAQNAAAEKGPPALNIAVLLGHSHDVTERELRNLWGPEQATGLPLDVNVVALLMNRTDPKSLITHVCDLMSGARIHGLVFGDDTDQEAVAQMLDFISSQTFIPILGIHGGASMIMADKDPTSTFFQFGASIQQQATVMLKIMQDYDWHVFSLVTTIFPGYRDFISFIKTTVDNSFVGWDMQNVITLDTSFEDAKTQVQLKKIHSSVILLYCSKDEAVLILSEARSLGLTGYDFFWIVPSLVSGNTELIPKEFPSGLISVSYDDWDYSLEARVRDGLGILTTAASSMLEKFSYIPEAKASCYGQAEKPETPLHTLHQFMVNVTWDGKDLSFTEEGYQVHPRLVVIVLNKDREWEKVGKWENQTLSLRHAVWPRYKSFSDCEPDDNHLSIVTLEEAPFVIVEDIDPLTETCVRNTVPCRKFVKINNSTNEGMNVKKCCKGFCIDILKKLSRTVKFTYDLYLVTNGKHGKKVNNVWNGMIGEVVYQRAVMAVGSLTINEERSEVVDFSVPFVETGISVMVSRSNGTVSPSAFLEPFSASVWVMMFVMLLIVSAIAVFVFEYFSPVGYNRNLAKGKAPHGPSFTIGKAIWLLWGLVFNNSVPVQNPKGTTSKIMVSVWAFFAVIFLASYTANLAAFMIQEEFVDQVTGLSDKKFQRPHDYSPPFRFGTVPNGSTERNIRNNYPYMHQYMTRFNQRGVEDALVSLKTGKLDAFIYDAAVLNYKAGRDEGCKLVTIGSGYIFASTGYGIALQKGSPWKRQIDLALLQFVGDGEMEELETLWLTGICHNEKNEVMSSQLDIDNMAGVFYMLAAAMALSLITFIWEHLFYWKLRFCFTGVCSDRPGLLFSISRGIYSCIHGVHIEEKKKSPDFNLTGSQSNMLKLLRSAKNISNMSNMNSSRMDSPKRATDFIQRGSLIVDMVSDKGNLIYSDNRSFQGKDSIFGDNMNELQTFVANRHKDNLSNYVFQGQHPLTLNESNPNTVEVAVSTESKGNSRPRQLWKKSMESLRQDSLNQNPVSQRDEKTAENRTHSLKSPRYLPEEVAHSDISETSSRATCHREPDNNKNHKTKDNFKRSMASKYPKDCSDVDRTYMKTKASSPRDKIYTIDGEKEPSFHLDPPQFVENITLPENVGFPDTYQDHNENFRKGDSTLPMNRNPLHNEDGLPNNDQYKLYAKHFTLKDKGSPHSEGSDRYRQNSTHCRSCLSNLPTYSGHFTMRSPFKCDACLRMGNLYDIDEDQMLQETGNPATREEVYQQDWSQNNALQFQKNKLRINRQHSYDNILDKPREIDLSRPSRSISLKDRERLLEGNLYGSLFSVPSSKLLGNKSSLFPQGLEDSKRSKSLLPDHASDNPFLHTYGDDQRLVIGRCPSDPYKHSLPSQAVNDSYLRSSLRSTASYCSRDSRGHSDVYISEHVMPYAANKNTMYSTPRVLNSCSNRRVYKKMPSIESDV
Sequence of Transient receptor potential cation channel subfamily V member 1 (O35433 whole entry): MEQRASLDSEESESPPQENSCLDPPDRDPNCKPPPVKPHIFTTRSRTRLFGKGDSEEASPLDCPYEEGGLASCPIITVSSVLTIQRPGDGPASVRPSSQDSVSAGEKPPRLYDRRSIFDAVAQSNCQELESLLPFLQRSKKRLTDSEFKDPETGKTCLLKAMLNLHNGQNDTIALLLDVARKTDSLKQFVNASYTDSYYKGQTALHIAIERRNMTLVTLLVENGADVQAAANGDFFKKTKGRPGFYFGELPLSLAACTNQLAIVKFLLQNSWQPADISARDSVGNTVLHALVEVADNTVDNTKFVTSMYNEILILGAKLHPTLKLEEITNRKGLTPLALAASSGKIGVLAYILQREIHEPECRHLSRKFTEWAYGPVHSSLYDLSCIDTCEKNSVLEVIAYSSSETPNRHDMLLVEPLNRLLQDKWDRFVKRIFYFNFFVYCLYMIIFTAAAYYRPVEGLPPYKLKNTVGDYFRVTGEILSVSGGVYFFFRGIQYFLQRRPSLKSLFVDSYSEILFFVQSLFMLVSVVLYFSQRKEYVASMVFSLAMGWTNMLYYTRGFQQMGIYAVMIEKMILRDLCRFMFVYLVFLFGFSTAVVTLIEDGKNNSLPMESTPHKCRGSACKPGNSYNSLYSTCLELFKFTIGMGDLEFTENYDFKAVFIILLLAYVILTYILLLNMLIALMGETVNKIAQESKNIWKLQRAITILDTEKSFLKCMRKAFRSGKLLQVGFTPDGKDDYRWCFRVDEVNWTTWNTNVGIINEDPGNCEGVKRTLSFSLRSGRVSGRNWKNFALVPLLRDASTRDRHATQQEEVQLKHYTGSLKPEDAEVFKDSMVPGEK

For `N=C(N)NCCC[C@H](N)C(=O)N(CCc1c[nH]c2ccccc12)CC(=O)N(CCc1c[nH]c2ccccc12)CC(N)=O`, the IC50 (in general, the midpoint of a concentration-inhibition curve) in test [1] stood at 1.33 µM; in test [2], 207 µM.

For `NC(N)=NCCC[C@H](N)C(=O)N[C@H]1C[C@@H](C(=O)NCCc2ccc(Cl)cc2Cl)N(Cc2ccc(Cl)cc2Cl)C1`, the half-inhibitory concentration (IC50) in test [1] is 0.7 µM; in test [2], 8 µM.

Consider `N=C(N)NCCC[C@H](N)C(=O)N(CCc1ccc(Cl)cc1Cl)CC(=O)N(CCc1ccc(Cl)cc1Cl)CC(N)=O`, for which the 50% inhibitory concentration (IC50) in test [1] is 0.7 µM; in test [2], 15 µM.

As for `NC(=O)CN(CCc1ccc(Cl)cc1Cl)C(=O)CN(CCc1c[nH]c2ccccc12)C(=O)[C@@H](N)CCCN=C(N)N`, the values for the IC50 in test [1] and in test [2] were 0.52 µM and 17 µM, respectively.

Turning to `N=C(N)NCCC[C@H](N)C(=O)N(CCc1ccc(Cl)cc1Cl)CC(=O)NCCc1ccc(Cl)cc1Cl`, the values for the IC50 in test [1] and in test [2] were 0.17 µM and 0.8 µM, respectively.

For the molecule `N=C(N)NCCC[C@H](N)C(=O)N(CCc1ccc(Cl)cc1Cl)CC(=O)N(CCc1c[nH]c2ccccc12)CC(N)=O`, the results for the IC50 in test [1] and in test [2] were 0.18 µM and 166 µM, respectively.

As to `NCCCCCCN(CCc1ccc(Cl)cc1Cl)CC(=O)N(CCc1ccc(Cl)cc1Cl)CC(N)=O`, the IC50 in test [1] was 0.4 µM; in test [2], 3 µM.

In test [2], `NC(N)=NCCC[C@H](N)C(=O)N(CCc1c[nH]c2ccccc12)CC(=O)NCCc1c[nH]c2ccccc12` yielded an IC50 of 18 µM.
